Literature values in US20240368262A1, “A MYOSTATIN PATHWAY INHIBITOR IN COMBINATION WITH A GLP-1 PATHWAY ACTIVATOR FOR USE IN TREATING METABOLIC DISORDERS” (SCHOLAR ROCK, INC., priority 2021, published 2024).

Tested on: GIP and GLP-1 receptor
Settings: Rosenstock et al., Lancet; cited from earlier work

Tirzepatide
body weight: reduce body weight
glycemic control: improve glycemic control
